Here are results for eight compounds from publication PMC6264295, “Studies on Log Po/w of Quinoxaline di-N-Oxides: A Comparison of RP-HPLC Experimental and Predictive Approaches” (Molecules, 2011).

Series [1] can be described thus: RP-HPLC determination of capacity factors and log Po/w (Supelcosil LC-ABZ, MOPS buffer pH 7.4/methanol). Particulars: for Capacity factors log k’40: 40% methanol; for Capacity factors log k’40 / Capacity factors log k’50 / Capacity factors log k’60 / Capacity factors log k’70: MOPS buffer pH 7.4; for Capacity factors log k’50: 50% methanol; for Capacity factors log k’60: 60% methanol; for Capacity factors log k’70: 70% methanol; for Capacity factors log k’0: extrapolated to 0% methanol; for chromatographic logP: pH 7.4, RP-HPLC log Po/w. As to the method:
The RP-HPLC methods of Minick and Lombardo [53] were considered for estimating the n-octanol/water partition coefficients (log Po/w) of QdO. The inorganic salts and the reference compounds were, at least, of analytical grade (Sigma Aldrich and Fluka) and used without further purification. HPLC-grade methanol, n-octanol (Sigma-Aldrich) and bi-distilled water were used to prepare the mobile phase.
The other chromatographic conditions were: flow 1.0 mL/min^−1; isocratic elution, UV-visible detector set at the wavelength with maximum absorbance (260 and 210 nm). The test solutions were 0.3 mM in the desired compound. All the experiments were performed at 25 ± 2 °C at least twice.
The capacity factors were calculated according to Equation (2): […]
In order to judge if the experimentally measured log k’0 can be used to predict the log Po/w value, a calibration curve was created with the capacity factors of the reference compounds and a linear regression equation between the log Po/w and log k’0 was determined.
The robustness of the model and its predictivity were evaluated by the leave-one-out (LOO) cross-validation procedure. According to this procedure, the log Po/w value of each compound in the reference data set is predicted by the equations derived from all the other compounds except the predicted one. At the end of this procedure two values are available for each reference compound, the reference shake-flask log Po/w value (yi) and the predicted one (ŷi). […] The regression coefficient (R^2LOO) is defined by Equation (5): [drawing 8] (5) where [drawing 9] is the mean of the reference shake-flask log Po/w value and n is the number of reference compounds. A high value of R^2LOO indicates a good predictive ability of the model. The root mean squared error in prediction (RMSELOO) is calculated with Equation (6): [drawing 10] (6)

The conditions of series [2]: reference compounds; reference values; ref OECD Guidelines [39]; cited from earlier work.
On the set-up of series [3]: method as in earlier work. The settings on record: reduction peak potential; cited from earlier work.

In general, chromatographic logP refers to a lipophilicity value derived from retention on a column. High values mean a more lipophilic compound, low ones a more hydrophilic compound.

In the case of `CCC(C)=O` [Compound 1, 2-Butanone, reference compound], the “log k’0” value in series [1] (reference compounds, capacity factor extrapolated to 0% methanol, pH 7.4) is recorded as −0.06. For the same compound, the “RP-HPLC log Po/w” value in series [1] (reference compounds, from log k’0 by Equation (1)) stood at 0.21. Also, the “LOO-predicted RP-HPLC log Po/w” value in series [1] (reference compounds, leave-one-out cross-validation) is on record as 0.15. Further, the “log Po/w” value in series [2] is reported as 0.3.
For the compound `Cc1ccc(CNC(=O)c2c(C)[n+]([O-])c3ccccc3[n+]2[O-])cc1` [Compound 22], in series [1], the “Capacity factors log k’40” value stood at 0.62, the “Capacity factors log k’50” value was 0.25, the “Capacity factors log k’60” value is reported as −0.10 and the “Capacity factors log k’70” value was −0.44. Besides, in series [1], the chromatographic logP was 2.29. For the same compound, in series [1] (pH 7.4), the “Capacity factors log k’0” value is given as 2.02. Further, the “Epc,1” value in series [3] was −1.580.
For the compound `Cc1ccc(CNC(=O)c2c(C)[n+]([O-])c3ccc(C)cc3[n+]2[O-])cc1` [Compound 23], in series [1], the “Capacity factors log k’40” value came out at 0.66, the “Capacity factors log k’50” value was found to be 0.34, the “Capacity factors log k’60” value is reported as −0.01 and the “Capacity factors log k’70” value is −0.36. The compound also gave a chromatographic logP in series [1] of 2.29. Further, the “Capacity factors log k’0” value in series [1] (pH 7.4) is 2.02. The “Epc,1” value in series [3] is recorded as −1.590.
With `Cc1ccc(CNC(=O)c2c(C)[n+]([O-])c3ccc(Cl)cc3[n+]2[O-])cc1` [Compound 24], in series [1], the “Capacity factors log k’40” value was 0.93, the “Capacity factors log k’50” value is on record as 0.54, the “Capacity factors log k’60” value is recorded as 0.15 and the “Capacity factors log k’70” value is given as −0.25. The chromatographic logP in series [1] came to 2.77. Moreover, the “Capacity factors log k’0” value in series [1] (pH 7.4) is 2.51. Further, the “Epc,1” value in series [3] is recorded as −1.489.
On to `Cc1c(C(=O)NCC(c2ccccc2)c2ccccc2)[n+]([O-])c2ccccc2[n+]1[O-]` [Compound 26], for which, in series [1], the “Capacity factors log k’40” value is 1.06, the “Capacity factors log k’50” value turned out to be 0.62, the “Capacity factors log k’60” value worked out at 0.14 and the “Capacity factors log k’70” value was −0.33. This compound came in with a chromatographic logP in series [1] of 3.18. The “Capacity factors log k’0” value in series [1] (pH 7.4) is given as 2.92. The “Epc,1” value in series [3] is recorded as −1.591.
For `Cc1ccc2c(c1)[n+]([O-])c(C(=O)NCC(c1ccccc1)c1ccccc1)c(C)[n+]2[O-]` [Compound 27], in series [1], the “Capacity factors log k’40” value was 1.21, the “Capacity factors log k’50” value was found to be 0.80, the “Capacity factors log k’60” value worked out at 0.33 and the “Capacity factors log k’70” value is −0.12. In addition, the chromatographic logP in series [1] was determined as 3.28. Also, the “Capacity factors log k’0” value in series [1] (pH 7.4) is reported as 3.02. Further, in series [3], the “Epc,1” value is listed as −1.640.
With `Cc1c(C(=O)NCC(c2ccccc2)c2ccccc2)[n+]([O-])c2cc(Cl)ccc2[n+]1[O-]` [Compound 28], in series [1], the “Capacity factors log k’40” value is listed as 1.38, the “Capacity factors log k’50” value was found to be 0.91, the “Capacity factors log k’60” value worked out at 0.38 and the “Capacity factors log k’70” value is listed as −0.13. This compound yielded a chromatographic logP in series [1] of 3.69. Also, the “Capacity factors log k’0” value in series [1] (pH 7.4) is 3.42. For the same compound, the “Epc,1” value in series [3] is −1.491.
On to `Cc1c(C(=O)NCC(c2ccccc2)c2ccccc2)[n+]([O-])c2cc(Cl)c(Cl)cc2[n+]1[O-]` [Compound 29], for which, in series [1], the “Capacity factors log k’40” value is on record as 1.78, the “Capacity factors log k’50” value came out at 1.31, the “Capacity factors log k’60” value stood at 0.76 and the “Capacity factors log k’70” value amounted to 0.25. The chromatographic logP in series [1] is 4.12. Moreover, the “Capacity factors log k’0” value in series [1] (pH 7.4) was 3.86. Also, in series [3], the “Epc,1” value is on record as −1.410.
